# Target: T1, EHMT2 (Homo sapiens, UniProt Q96KQ7)
# T1 construct: endogenous in cells; host or cells: MDA-MB-231 (ATCC)
# T1 sequence (Q96KQ7 1-1210): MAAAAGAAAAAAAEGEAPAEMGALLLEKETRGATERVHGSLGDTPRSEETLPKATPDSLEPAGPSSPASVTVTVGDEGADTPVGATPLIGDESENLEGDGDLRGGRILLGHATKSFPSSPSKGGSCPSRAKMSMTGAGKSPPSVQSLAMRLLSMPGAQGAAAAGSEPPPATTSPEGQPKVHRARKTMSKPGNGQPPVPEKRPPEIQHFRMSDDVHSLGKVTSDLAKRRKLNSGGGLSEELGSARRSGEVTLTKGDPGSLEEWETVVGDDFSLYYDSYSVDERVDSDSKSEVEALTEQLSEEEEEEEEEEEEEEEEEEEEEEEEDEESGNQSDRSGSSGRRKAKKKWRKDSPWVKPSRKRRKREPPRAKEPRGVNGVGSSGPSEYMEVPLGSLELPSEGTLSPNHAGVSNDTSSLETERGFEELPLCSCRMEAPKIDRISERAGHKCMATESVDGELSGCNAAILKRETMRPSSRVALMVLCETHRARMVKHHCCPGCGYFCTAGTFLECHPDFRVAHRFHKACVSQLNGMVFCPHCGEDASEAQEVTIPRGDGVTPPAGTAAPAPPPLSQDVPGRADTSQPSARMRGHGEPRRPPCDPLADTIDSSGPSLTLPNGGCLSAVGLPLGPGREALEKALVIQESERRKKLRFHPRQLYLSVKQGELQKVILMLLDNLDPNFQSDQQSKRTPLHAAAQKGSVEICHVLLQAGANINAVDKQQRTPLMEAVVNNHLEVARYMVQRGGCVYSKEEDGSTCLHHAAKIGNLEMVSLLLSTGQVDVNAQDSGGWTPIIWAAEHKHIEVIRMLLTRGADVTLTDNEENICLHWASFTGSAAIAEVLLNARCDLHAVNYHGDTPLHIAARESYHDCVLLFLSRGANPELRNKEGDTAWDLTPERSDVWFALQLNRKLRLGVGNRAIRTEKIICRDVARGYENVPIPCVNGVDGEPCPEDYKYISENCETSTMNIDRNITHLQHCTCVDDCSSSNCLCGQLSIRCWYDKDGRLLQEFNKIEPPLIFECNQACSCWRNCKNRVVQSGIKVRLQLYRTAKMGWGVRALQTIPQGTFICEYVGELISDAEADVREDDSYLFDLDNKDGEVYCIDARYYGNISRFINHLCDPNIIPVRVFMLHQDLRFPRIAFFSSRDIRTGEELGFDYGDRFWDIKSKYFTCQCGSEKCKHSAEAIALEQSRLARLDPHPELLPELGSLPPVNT
# Experiment: MDA-MB-231 H3K9me2 in-cell Western assay (EHMT2 ICW)
# Format: cell-based
# Details: not given
# Description: MDA-MB-231 cell line was purchased from ATCC (Manassas, Va., USA). RPMI/Glutamax medium, Penicillin-Streptomycin, Heat Inactivated Fetal Bovine Serum, and D-PBS were purchased from Life Technologies (Grand Island, N.Y., USA). Odyssey blocking buffer, 800CW goat anti-mouse IgG (H+L) antibody, and Licor Odyssey Infrared Scanner were purchased from Licor Biosciences, Lincoln, Nebr., USA. H3K9me2 mouse monoclonal antibody (Cat #1220) was purchased from Abcam (Cambridge, Mass., USA). 16% Paraformaldehyde was purchased from Electron Microscopy Sciences, Hatfield, Pa., USA). MDA-MB-231 cells were maintained in complete growth medium (RPMI supplemented with 10% v/v heat inactivated fetal bovine serum) and cultured at 37° C. under 5% CO2. UNC0638 was purchased from Sigma-Aldrich (St. Louis, Mo., USA).
# General Procedure for MDA-MB-231 HEK9me2 in-cell Western Assay. Compound (100 nL) was added directly to 384-well cell plate. MDA-MB-231 cells (ATCC) were seeded in assay medium (RPMI/Glutamax supplemented with 10% v/v heat inactivated fetal bovine serum and 1% Penicillin/Streptomycin, Life Technologies) at a concentration of 3,000 cells per well to a Poly-D-Lysine coated 384-well cell culture plate with 50 μL per well. Plates were incubated at 37° C., 5% CO2 for 48 hours (BD Biosciences 356697). Plates were incubated at room temperature for 30 minutes and then incubated at 37° C., 5% CO2 for additional 48 hours. After the incubation, 50 μL per well of 8% paraformaldehyde (Electron Microscopy Sciences) in PBS was added to the plates and incubated at room temperature for 20 minutes. Plates were transferred to a Biotek 406 plate washer and washed 2 times with 100 μL per well of wash buffer (1×PBS containing 0.3% Triton X-100 (v/v)). Next, 60 μL per well of Odyssey blocking buffer (Licor Biosciences) was added to each plate and incubated for 1 hour at room temperature. Blocking buffer was removed and 20 μL of monoclonal primary antibody α-H3K9me2 (Abcam) diluted 1:800 in Odyssey buffer with 0.1% Tween 20 (v/v) were added and plates were incubated overnight (16 hours) at 4° C. Plates were washed 5 times with 100 μL per well of wash buffer. Next 20 μL per well of secondary antibody was added (1:500 800CW donkey anti-mouse IgG (H+L) antibody (Licor Biosciences), 1:1000 DRAQ5 (Cell Signaling Technology) in Odyssey buffer with 0.1% Tween 20 (v/v)) and incubated for 1 hour at room temperature. The plates were washed 5 times with […] wash buffer then 2 times with 100 μL per well of water. Plates were allowed to dry at room temperature then imaged on a Licor Odyssey Infrared Scanner (Licor Biosciences) which measured integrated intensity at 700 nm and 800 nm wavelengths. Both 700 and 800 channels were scanned.
# % Inhibition Calculation. First, the ratio for each well was determined by:
# Each plate included fourteen control wells of DMSO only treatment (Minimum Inhibition) as well as fourteen control wells (background wells) for maximum inhibition treated with control compound UNC0638 (Background wells).
# The average of the ratio values for each well was calculated and used to determine the percent inhibition for each test well in the plate. Control compound was serially diluted three-fold in DMSO for a total of 10 test concentrations beginning at 1 μM. Percent inhibition was calculated as: […]
# IC50 curves were generated using triplicate wells per concentration of compound. The IC50 is the concentration of compound at which measured methylation is inhibited by 50% as interpolated from the dose response curves. IC50 values were calculated using a non-linear regression (variable slope-four parameter fit model) with by the following formula:
# where Top is fixed at 100% and Bottom is fixed to 0%, [I]=concentration of inhibitor, IC50=half maximal inhibitory concentration, and n=Hill Slope.
row,Compound,IC50
1,"COc1cc2c(cc1OCCCN1CCCC1)N=C(N)C21CCOC1 (stereo not drawn) [Compound 7, 5′-methoxy-6′-(3-(pyrrolidin-1-yl)propoxy)-4,5-dihydro-2H-spiro[furan-3,3′-indol]-2′-amine]",0.1 to 1 µM

# Same assay, conditions: MDA-MB-231 cells, H3K9me2 in-cell Western; read-out: EHMT2 ICW (IC50 μM)
row,Compound,IC50
1,"COc1cc2[nH]c(N)nc2cc1OCCCN1CCCC1 [Compound 1, 6-methoxy-5-(3-(pyrrolidin-1-yl)propoxy)-1H-benzo[d]imidazol-2-amine]",1 to 10 µM
2,"COc1cc2c(cc1OCCCN1CCCC1)nc(N)n2C [Compound 2, 6-methoxy-1-methyl-5-(3-(pyrrolidin-1-yl)propoxy)-1H-benzo[d]imidazol-2-amine]",0.1 to 1 µM
3,"COc1cc2c(cc1OCCCN1CCCC1)N=C(N)C21CCOCC1 [Compound 5, 5-methoxy-6-(3-(pyrrolidin-1-yl)propoxy)-2′,3′,5′,6′-tetrahydrospiro[indole-3,4′-pyran]-2-amine]",0.1 to 1 µM
4,"CNc1nc2cc(OCCCN3CCCC3)c(OC)cc2n1C [Compound 8, 6-methoxy-N,1-dimethyl-5-(3-(pyrrolidin-1-yl)propoxy)-1H-benzo[d]imidazol-2-amine]",< 0.1 µM
5,"COc1cc2c(cc1OCCCN1CCCC1)nc(N)n2CC(F)(F)F [Compound 11, 6-methoxy-5-(3-(pyrrolidin-1-yl)propoxy)-1-(2,2,2-trifluoroethyl)-1H-benzo[d]imidazole-2-amine]",1 to 10 µM
6,"CNc1nc2cc(OCCCN3CCCC3)c(OC)cc2n1C1CCOCC1 [Compound 13, 6-methoxy-N-methyl-5-(3-(pyrrolidin-1-yl)propoxy)-1-(tetrahydro-2H-pyran-4-yl)-1H-benzo[d]imidazol-2-amine]",0.1 to 1 µM
7,COc1cc2c(cc1OCCCN1CCCC1)nc(N)n2CC1CCOCC1 [Compound 18],1 to 10 µM
8,COc1cc2c(cc1OCCCN1CCCC1)nc(N)n2C(C)C [Compound 19],0.1 to 1 µM
9,"COc1cc2c(cc1OCCCN1CCCC1)nc(C)n2C [Compound 21, 6-methoxy-1,2-dimethyl-5-(3-(pyrrolidin-1-yl)propoxy)-1H-benzo[d]imidazole]",> 10 µM
10,"COc1cc2c(cc1OCCCN1CCCC1)nc(C1CCCC1)n2C [Compound 22, 2-cyclopentyl-6-methoxy-1-methyl-5-(3-(pyrrolidin-1-yl)propoxy)-1H-benzo[d]imidazole]",> 10 µM
11,"COc1cc2c(cc1C#CCN1CCCC1)N=C(N)C21CCC1 [Compound 24, 5′-methoxy-6′-(3-(pyrrolidin-1-yl)prop-1-yn-1-yl)spiro[cyclobutane-1,3′-indol]-2′-amine]",< 0.1 µM
12,CNc1nc2cc(OC[C@H](O)CN3CCCC3)c(OC)cc2n1C [Compound 26],0.1 to 1 µM
13,CCNc1nc2cc(OC[C@H](O)CN3CCCC3)c(OC)cc2n1C [Compound 31],0.1 to 1 µM
14,COc1cc2c(cc1OC[C@H](O)CN1CCCC1)nc(NCC1CC1)n2C [Compound 34],0.1 to 1 µM
15,COc1cc2c(cc1OC[C@H](O)CN1CCCC1)nc(NC1CCOCC1)n2C [Compound 35],> 10 µM
16,CNc1nc2cc(OCCCN3CCCC3)c(OC)cc2n1C(C)C [Compound 36],< 0.1 µM
17,CNc1nc2cc(OC[C@H](O)CN3CCCC3)c(OC)cc2n1C1CCCC1 [Compound 38],0.1 to 1 µM
18,CCn1c(NC)nc2cc(CNCCN3CCCC3)c(OC)cc21 [Compound 41],0.1 to 1 µM
19,CCn1c(NC)nc2cc(OCCCN3CCCC3)c(OC)cc21 [Compound 42],< 0.1 µM

# More lines, now with the values ahead:
row,IC50,Compound
1,0.1 to 1 µM,"COc1cc2c(cc1OCCCN1CCCC1)nc(N)n2C1CCCC1 [Compound 3, 1-cyclopentyl-6-methoxy-5-(3-(pyrrolidin-1-yl)propoxy)-1H-benzo[d]imidazol-2-amine]"
2,> 10 µM,"COc1cc2sc(N)nc2cc1OCCCN1CCCC1 [Compound 6, 6-methoxy-5-[3-(pyrrolidin-1-yl)propoxy]-1,3-benzothiazol-2-amine]"
3,0.1 to 1 µM,"CCN1CC[C@@H](COc2cc3nc(N)n(C4CCCC4)c3cc2OC)C1 [Compound 9, 1-cyclopentyl-5-[[(3R)-1-ethylpyrrolidin-3-yl]methoxy]-6-methoxy-1H-1,3-benzodiazol-2-amine]"
4,0.1 to 1 µM,"CCN1CC(COc2cc3nc(N)n(C4CCCC4)c3cc2OC)C1 [Compound 10, 1-cyclopentyl-5-((1-ethylazetidin-3-yl)methoxy)-6-methoxy-1H-benzo[d]imidazol-2-amine]"
5,1 to 10 µM,"COc1cc2c(cc1OCCCN1CCCC1)nc(NCC(F)(F)F)n2C [Compound 12, 6-methoxy-1-methyl-5-(3-(pyrrolidin-1-yl)propoxy)-N-(2,2,2-trifluoroethyl)-1H-benzo[d]imidazol-2-amine]"
6,1 to 10 µM,"COc1cc2c(cc1OCCCN1CCCC1)nc(C)n2C1CCCC1 [Compound 23, 1-cyclopentyl-6-methoxy-2-methyl-5-(3-(pyrrolidin-1-yl)propoxy)-1H-benzo[d]imidazole]"
7,0.1 to 1 µM,CNc1nc2cc(OC[C@H](O)CN3CCC3)c(OC)cc2n1C [Compound 25]
8,0.1 to 1 µM,CCNc1nc2cc(OCCCN3CCCC3)c(OC)cc2n1C [Compound 27]
9,1 to 10 µM,COc1cc2c(cc1OCCCN1CCCC1)nc(NC(C)C)n2C [Compound 28]
10,1 to 10 µM,COc1cc2c(cc1OCCCN1CCCC1)nc(NC1CCOCC1)n2C [Compound 29]
11,1 to 10 µM,COc1cc2c(cc1OCCCN1CCCC1)nc(NC1CCCC1)n2C [Compound 30]
12,1 to 10 µM,COc1cc2c(cc1OC[C@H](O)CN1CCCC1)nc(NC(C)C)n2C [Compound 32]
13,1 to 10 µM,COc1cc2c(cc1OC[C@H](O)CN1CCCC1)nc(NC1CCCC1)n2C [Compound 33]
14,0.1 to 1 µM,CNc1nc2cc(CNCCN3CCCC3)c(OC)cc2n1C [Compound 37]
15,0.1 to 1 µM,CCNc1nc2cc(OCCCN3CCCC3)c(OC)cc2n1CC [Compound 39]
16,1 to 10 µM,CNc1nc2cc(CNCCN3CCCC3)c(OC)cc2n1C(C)C [Compound 40]

# Reference: patent publication US20220274961A1, “SUBSTITUTED FUSED BI- OR TRI- HETEROCYCLIC COMPOUNDS AS EHMT2 INHIBITORS” (priority 2016, published 2022)
